Legend:
[1] = tested on: Cunninghamella elegans bio-110930; experiment: Microbial transformation of euphorbiasteroid, metabolite detection; settings: C. elegans bio-110930 culture with euphorbiasteroid
Method: The biotransformation process was conducted at two scales: preliminary screening and preparative. Preliminary screening scale biotransformation of euphorbiasteroid was carried out in 250 mL Erlenmeyer flasks containing 100 mL of liquid medium. The flasks were placed on a rotary shaker (160 rpm, 28 °C). A standard two-stage fermentation protocol was employed in all experiments. After 2 days of pre-culture, the substrates of 5 mg (dissolved in 0.5 mL of acetone) were added into each flask. Taking 1 mL samples on days 0, 2, 4, 7, 10, and 14, samples were centrifuged and the degree of transformation was compared to controls on TLC and HPLC, and a 2-μL aliquot of the supernatant was directly injected into the UPLC-Q-TOF-MS system. Culture controls consisted of sterile medium, in which microorganisms were grown under identical conditions without substrate. Substrate controls were composed of sterile medium and the same amount of substrate incubated under the same conditions without microorganisms.
(§1) First, the metabolites of euphorbiasteroid in rats (plasma, urine, and feces), RLMs, and C. elegans culture medium were predicted by setting the prototype components and potential biological metabolic reactions in UNIFI 4.1 software. Then, the predicted metabolites in each sample were further compared according to the characteristic mass spectrum behaviors (including parent ions, internal cleavage in the ion source, and characteristic fragment ions of each metabolite) and retention times.

[2] = In vitro incubation of euphorbiasteroid with rat liver microsomes, metabolite detection; format: in vitro ADME; settings: 37 °C, 1 h, NADPH regenerating system
Method: The microsomal incubation approach was based on previous metabolism studies published by Wintermeyer et al. and Franziska et al.. A 200 μL incubation system containing 10 μL of solution A, 2 μL of solution B, 5 μL of rat liver microsomes (20 mg/mL) and 182 μL 0.1 M PBS buffer (pH = 7.4) was constructed. The above solution was heated in a 37 °C water bath, then 1 μL of euphorbiasteroid (dissolved in DMSO solution, 10 mM) was used to start the reaction, and the mixture was then incubated at 37 °C for 1 h. The reactions were terminated by the addition of 200 μL of ice-cold acetonitrile. The mixture was then centrifuged at 13,000 rpm for 10 min, and a 2-μL aliquot of the supernatant was directly injected into the UPLC-Q-TOF-MS system.
as §1

[3] = Metabolite detection in rats (plasma, urine, feces) after oral euphorbiasteroid by UPLC-Q/TOF-MS; format: in vivo, Sprague-Dawley rats; settings: single oral dose 100 mg/kg euphorbiasteroid
Method: For metabolite separation and detection, chromatographic analyses were performed using a Waters Acquity UPLC I-class system (Waters, Milford, MA, USA), equipped with an auto-sampler, a binary solvent delivery system, an online degasser, and a photodiode array detector. An ACQUITY UPLC® HSS T3 column (2.1 × 150 mm, 1.8 μm, Waters) protected with a HSS T3 VanGuard ™ Pre-Column 3/Pk (2.1 × 5.0 mm, 1.8 μm, Waters) was used. The optimized parameters were set as follows: the mobile phase consisted of eluent A (0.1% formic acid in water, v/v) and eluent B (acetonitrile). The flow rate was 0.3 mL/min. The column and auto-sampler temperatures were maintained at 40 °C and 4 °C, respectively. The gradient elution program was optimized as follows: 0–9 min, 30–70% B; 9–13 min, 70–90% B; 13–17 min, 90–100% B; 17–20 min, 100–100% B.
The mass spectrometry detection was performed on the SYNAPT G2-Si HDMS system, equipped with an electrospray ionization (ESI) source (Waters Corp., Manchester, UK). A positive ion mode was conducted in this analysis. Mass spectrometry conditions were finally set as follows: capillary voltage of 3.0 kV, cone voltage of 40 V, source temperature of 120 °C, and de-solvation temperature of 400 °C. Nitrogen was used as the desolvation and cone gas with a flow rate of 800 and 50 L/h, respectively, and the full-scan mass range was set as m/z 50–1500 Da. In the auto mass spectrometry mode, the collision-induced dissociation energies were set at 0 eV for the precursor ion at the low-energy mode, and the collision-induced dissociation energies were set from 2 to 10 eV for the high-energy mode. Real-time data were calibrated using an external reference (LockSpray™) at a concentration of 0.2 ng/mL with an infusion flow rate of 5 μL/min, generating a reference ion for the positive ion mode (m/z 556.2771) during the UPLC-MS analysis. Data were acquired and processed using MassLynx ™ NT 4.1 software (Waters, Milford, MA, USA).
Male Sprague-Dawley rats (200–220 g) were commercially supplied by Shanghai Sippr-BK Laboratory Animal Co., Ltd. (Shanghai, China) and were housed in a humidity- and temperature-controlled room (50 ± 10% and 22–24 °C) with a 12-h light/dark cycle. The experimental rats were allowed to access food and water ad libitum and acclimatized to the conditions mentioned above for a week, then fasted overnight but with free access to water before the experiments. Euphorbiasteroid was dissolved in soybean oil solution (containing 0.5% ethanol) to form a concentration of 10 mg/mL. A single dose of 100 mg/kg euphorbiasteroid was orally administered to rats and the same concentration of soybean oil solution (containing 0.5% ethanol) was administered as a blank control. All animal procedures were performed in accordance with the Guidelines for Care and Use of Laboratory Animals of Naval Medical University and approved by the Animal Ethics Committee of Naval Medical University.
Blood samples (0.5 mL) were collected from six rats through the orbital sinus before administration (blank sample) and 0.25, 0.5, 1, 2, 4, 6, and 12 h after administration. Plasma samples were prepared by centrifugation at 4000 rpm for 10 min. For urine and feces sampling, 12 rats were divided into an administration group and a blank group, and were placed separately in stainless steel metabolic cages. Urine and feces samples were collected in containers surrounded by ice over 0–6, 6–12, and 12–24 h after drug administration. The mixed urine samples were centrifuged at 4000 rpm for 10 min at 4 °C to obtain the supernatants, and fecal samples were left in a cool and dry place until dry. All the biological samples were frozen at −80 °C before analysis.
An aliquot of 200 µL of plasma and urine samples was put in a 1.5 mL tube, respectively. 800 µL of acetonitrile was added and vortexed for 5 min to extract metabolites. Feces samples (1.0 g) were crushed and then ultrasonically extracted with acetonitrile (10 mL) for 30 min. […]

CC(=O)OC1C2C(OC(=O)Cc3ccccc3)C(C)CC2(OC(C)=O)C(=O)C(C)=CC2C(CCC13CO3)C2(C)CO (stereo not drawn) [Compound M1, 18α-hydroxyl euphorbiasteroid]
√: Distribution Fungi (metabolite detected) [1] | Distribution RLMs (metabolite detected) [2] | Distribution Rat Faeces (metabolite detected) [3] | Distribution Rat Plasma (metabolite detected) [3] | Distribution Rat Urine (metabolite detected) [3]

CC(=O)OC1C2C(OC(=O)Cc3ccc(O)cc3)C(C)CC2(OC(C)=O)C(=O)C(C)=CC2C(CCC13CO3)C2(C)C (stereo not shown) [Compound M2, 4′-hydroxyl euphorbiasteroid]
√: Distribution Fungi (metabolite detected) [1] | Distribution RLMs (metabolite detected) [2] | Distribution Rat Faeces (metabolite detected) [3] | Distribution Rat Urine (metabolite detected) [3]

CC(=O)OC1C2C(OC(=O)C(O)c3ccccc3)C(C)CC2(OC(C)=O)C(=O)C(C)=CC2C(CCC13CO3)C2(C)C (stereo not shown) [Compound M4, 7′-hydroxyl euphorbiasteroid]
√: Distribution Fungi (metabolite detected) [1] | Distribution RLMs (metabolite detected) [2] | Distribution Rat Faeces (metabolite detected) [3] | Distribution Rat Plasma (metabolite detected) [3] | Distribution Rat Urine (metabolite detected) [3]

CC(=O)OC1C2C(OC(=O)Cc3ccccc3O)C(C)CC2(OC(C)=O)C(=O)C(C)=CC2C(CCC13CO3)C2(C)C (stereo not shown) [Compound M5, 2′-hydroxyl euphorbiasteroid]
√: Distribution Fungi (metabolite detected) [1] | Distribution RLMs (metabolite detected) [2] | Distribution Rat Faeces (metabolite detected) [3] | Distribution Rat Plasma (metabolite detected) [3]

CC(=O)OC1C2C(OC(=O)Cc3ccccc3)C(CO)CC2(OC(C)=O)C(=O)C(C)=CC2C(CCC13CO3)C2(C)C (stereo not shown) [Compound M6]
√: Distribution RLMs (metabolite detected) [2] | Distribution Rat Faeces (metabolite detected) [3] | Distribution Rat Plasma (metabolite detected) [3]

CC(=O)OC1C2C(OC(=O)Cc3ccccc3O)C(C)CC2(OC(C)=O)C(=O)C(C)=CC2C(CCC13CO3)C2(C)CO (stereo not drawn) [Compound M8, 18α,2′-dihydroxyl euphorbiasteroid]
√: Distribution Fungi (metabolite detected) [1] | Distribution RLMs (metabolite detected) [2] | Distribution Rat Faeces (metabolite detected) [3] | Distribution Rat Plasma (metabolite detected) [3] | Distribution Rat Urine (metabolite detected) [3]

CC(=O)OC1C2C(OC(=O)CC3=CC=CC(O)C3O)C(C)CC2(OC(C)=O)C(=O)C(C)=CC2C(CCC13CO3)C2(C)C (stereo not shown) [Compound M12, 5′,6′-dihydroxyl dihydroeuphorbiasteroid]
√: Distribution Fungi (metabolite detected) [1] | Distribution RLMs (metabolite detected) [2] | Distribution Rat Faeces (metabolite detected) [3] | Distribution Rat Plasma (metabolite detected) [3]

CC(=O)OC1C2C(OC(=O)CC3=CC(O)C(O)C=C3)C(C)CC2(OC(C)=O)C(=O)C(C)=CC2C(CCC13CO3)C2(C)C (stereo not shown) [Compound M13, 3′,4′-dihydroxyl dihydroeuphorbiasteroid]
√: Distribution Fungi (metabolite detected) [1] | Distribution RLMs (metabolite detected) [2] | Distribution Rat Faeces (metabolite detected) [3] | Distribution Rat Plasma (metabolite detected) [3]

CC(=O)OC1C2C(OC(=O)Cc3ccccc3)C(C=O)CC2(OC(C)=O)C(=O)C(C)=CC2C(CCC13CO3)C2(C)C (stereo not shown) [Compound M14]
√: Distribution Fungi (metabolite detected) [1] | Distribution Rat Faeces (metabolite detected) [3] | Distribution Rat Plasma (metabolite detected) [3] | Distribution Rat Urine (metabolite detected) [3]

CC(=O)OC1C2C(OC(=O)Cc3ccccc3)C(C=O)CC2(OC(C)=O)C(=O)C(C)=CC2C(CCC13CO3)C2(C)C (stereo not shown) [Compound M15]
√: Distribution Rat Faeces (metabolite detected) [3] | Distribution Rat Plasma (metabolite detected) [3] | Distribution Rat Urine (metabolite detected) [3]

CC(=O)OC1C2C(OC(=O)Cc3ccccc3)C(C)CC2(OC(C)=O)C(=O)C(C)=CC2C(CCC13CO3)C2(C)C(=O)O (stereo not drawn) [Compound M16, 18α-carboxyl euphorbiasteroid]
√: Distribution Fungi (metabolite detected) [1] | Distribution RLMs (metabolite detected) [2] | Distribution Rat Faeces (metabolite detected) [3] | Distribution Rat Plasma (metabolite detected) [3] | Distribution Rat Urine (metabolite detected) [3]

CC(=O)OC1C2C(OC(=O)Cc3ccccc3)C(C(=O)O)CC2(OC(C)=O)C(=O)C(C)=CC2C(CCC13CO3)C2(C)C (stereo not shown) [Compound M17]
√: Distribution Fungi (metabolite detected) [1] | Distribution RLMs (metabolite detected) [2] | Distribution Rat Faeces (metabolite detected) [3] | Distribution Rat Plasma (metabolite detected) [3]

CC(=O)O[C@H]1[C@H]2[C@@H](OC(=O)Cc3ccccc3O[C@@H]3O[C@H](CO)[C@@H](O)[C@H](O)[C@H]3O)[C@@H](C)C[C@]2(OC(C)=O)C(=O)/C(C)=C/C2C(CC[C@@]13CO3)C2(C)C (stereo partly shown) [Compound M28]
√: Distribution Rat Faeces (metabolite detected) [3]

euphorbiasteroid 2′-O-β-D-glucopyranoside [Compound M29]
√: Distribution Fungi (metabolite detected) [1]

From PMC9504842, “Comprehensive Metabolic Profiling of Euphorbiasteroid in Rats by Integrating UPLC-Q/TOF-MS and NMR as Well as Microbial Biotransformation” (Metabolites, 2022)
